The assay relates to P. falciparum 3D7 growth, pLDH absorbance. Nature of the assay: P. falciparum 3D7 growth inhibition, dose response, strain 3D7 (AID 2305).

Each structure is given as a SMILES string. Values joined by “and” are separate entries in the source; they are usually repeats but may differ in a detail not shown here. Identical values can stand only once.

For `Cc1cccc(Nc2c(-c3cc(Br)ccc3O)nc3ncccn23)c1`, the IC50 turned out to be 210 nM.
Next, `COc1ccc2c(NN=Cc3ccccc3Cl)cc(C)nc2c1`: 370 nM.
Next, `CCCCCCCCn1ccc(=N)cc1`: 840 nM.
Molecule `COc1ccc2nccc([C@@H](O)CN3CCC(NC/C=C/c4cccnc4)CC3)c2c1` gave an IC50 of 620 nM.
Next, `O=C(Nc1ccc(-c2cccc(-c3nc4ccccc4[nH]3)c2)cc1)Nc1ccc(F)c(F)c1F`: 180 nM.
Consider `Cc1ccc(S(=O)(=O)/N=C(\N)NC(N)=O)cc1`, for which the IC50 was determined as 790 nM.
`Cc1cnc(NCC2CCCCC2)nc1N[C@@H](CO)C(=O)Nc1ccccc1` gave an IC50 of 1100 nM.
Next, `COc1cccc(CNC[C@@H](O)[C@H](Cc2ccccc2)NC(=O)c2cc(N3CCCC3=O)c3[nH]cc(C(C)C)c3c2)c1`: 530 nM; `Cc1[nH]nc2ccc(-c3ccc4nccc(N5CCC(N)CC5)c4c3)cc12`: 590 nM.
Regarding `COc1cc2nc(N3CCC(CNC(=O)c4cc(Br)c(Br)s4)CC3)nc(N)c2cc1OC`, the IC50 worked out at 710 nM.
To `Cc1cccc2[nH]c(-c3cccc(-c4ccc(NC(=O)C5CCCO5)cc4)c3)nc12` (centres undefined) belongs 900 nM.
Next, `Cc1[nH]c(C)c(-c2ccc(/C=C/c3ccccn3)cc2)c(=O)c1Cl`: 520 nM; `CC(=O)c1cccc(NC(=O)C2c3ccccc3C(=O)N(CC(C)C)C2c2cccs2)c1` (centres undefined): 590 nM; `Cc1nnsc1C(=O)Nc1cccc(-c2cccc(-c3nc4ccc(C(F)(F)F)cc4[nH]3)c2)c1`: 240 nM.
For `Cc1[nH]c(C)c(-c2ccc(Oc3ccc(Cl)c(Cl)c3)cc2)c(=O)c1Cl`, the IC50 is 110 nM.
`O=C(Nc1ccc(Oc2ccccc2)cc1)N1CCC(CCN2CCC(c3c[nH]c4ccccc34)CC2)CC1` showed an IC50 of 800 nM.
Next, `CC(O)CNc1nc2ccccc2n1CC(=O)Nc1cccc(C(=O)Nc2cccc(C(F)(F)F)c2)c1` (centres undefined): 100 nM.
Next, `COc1cccc(-c2cccc(CNC3CCN(CC4Cn5c(=O)ccc6ccc(F)c4c65)CC3)c2)c1` (centres undefined): 930 nM; `CC[C@H]1CN2CCc3cc(OC)c(OC)cc3[C@@H]2C[C@@H]1CC1=NCCc2c1[nH]c1ccc(OCc3ccccc3)cc21`: 770 nM; `Cc1ccc(CNC(=O)[C@H](CCCN)Nc2cc(C)nc(Nc3ccccc3)n2)cc1`: 1290 nM.
`COC(=O)c1cccc(CNCc2ccc(-c3ccc(-c4nc5ccccc5[nH]4)s3)cc2)c1` had an IC50 of 290 nM.
Molecule `Cc1ccc(NS(=O)(=O)c2ccc(-c3ccccc3)cc2)c(Cn2cnc(N3CCCNCC3)cc2=O)c1` showed an IC50 of 860 nM. Compared with the last molecule, the IC50 is about 3-fold higher.
In turn, `CCNc1cc(C(=O)N[C@@H](Cc2ccccc2)[C@H](O)CNC(C)(C)Cc2ccccc2)cc(N2CCCC2=O)c1` registered an IC50 of 260 nM.
The molecule `Cc1cc(N(C)C2CCN(C)CC2)nc(Nc2ccc(Br)cc2)n1` gave an IC50 of 480 nM.
Regarding `O=C(/C=C/c1ccc(Cl)c(Cl)c1)NCCCCCN1[C@@H]2CC[C@H]1CC(c1c[nH]c3ccc(O)cc13)C2` (some centres undefined), the IC50 is 880 nM and 1000 nM.
To `Cc1nnnn1-c1ccc(C(=O)N2CCC3(CC2)CN(Cc2ccc(Cl)c(Cl)c2)C(=O)O3)cc1` belongs 180 nM.
Next, `COc1ccc2ncn(-c3ccc(C(N)=O)c(OCc4ccccc4C(F)(F)F)c3)c2c1`: 540 nM; `COc1ccccc1C1CCN(Cc2csc(NC(=O)c3ccc(-c4ccc(C(F)(F)F)cc4)cc3)n2)CC1`: 950 nM; `COc1cccc(CNC(=O)NC2CCN(c3ccnc(Nc4cc(OC)c(OC)c(OC)c4)n3)C2)c1` (centres undefined): 710 nM.
`Nc1nc(N)c2c(ccn2Cc2cc3c(cc2Cl)OCO3)n1` displayed an IC50 of 760 nM.
`N#Cc1cccc(CNC(=O)c2cccc(Nc3ccnc4ccc(F)cc34)c2)c1`: the IC50 was 990 nM.
In the case of `N#Cc1ccc(NC(=NC2CCCc3ccccc32)Nc2ccc(-c3ccccc3)cc2)c(O)c1` (centres undefined), the IC50 is 780 nM.
To `CNCCCNCc1ccc(-c2ccc(F)c(Cl)c2)o1` belongs 750 nM; to `CCCn1c(SCC(=O)Nc2cc(C(F)(F)F)ccc2Cl)n[nH]c1=O`, 220 nM.
`CC(CCc1ccccc1)NCC(O)c1cccc(C(F)(F)F)c1` (centres undefined) showed a half-maximal inhibitory concentration (IC50) of 710 nM.
Take `O=C(Nc1cccc(-c2ccc(-c3nc4ccc(C(F)(F)F)cc4[nH]3)cc2)c1)Nc1ccc(F)c(F)c1F`: the IC50 came to 260 nM.
`O=C(/C=C/c1ccc(Cl)c(Cl)c1)NCCC1CCC(N2CCC(c3c[nH]c4ccccc34)CC2)CC1` (centres undefined) came in with an IC50 of 200 nM.
Next, `COc1ccc2nccc([C@@H](O)CN3CCC(NCc4cc5ccccc5s4)CC3)c2c1`: 350 nM; `COc1ccc(-c2cnc(N)nc2N)cc1Cl`: 1400 nM; `N=C(N)c1cc(Cl)cc(NC(=O)Nc2cc(Cl)cc(C(=N)N)c2)c1`: 720 nM.
Next, `CC(C)CCNC(=O)c1cnc2c(O)cccc2c1Nc1cccc(NC(=O)c2ccc(F)cc2)c1`: 910 nM; `CCOc1ccc2nccc([C@@H](O)[C@@H]3C[C@@H]4CCN3C[C@@H]4CC)c2c1`: 110 nM and 610 nM; `CCCN(CCC)CCCCC(C)Nc1c2ccc(Cl)cc2nc2ccc(OC)cc12` (centres undefined): 140 nM.
For `CN(c1cc(NC(=O)c2ccccc2)ccn1)C1CCN(Cc2cccc(F)c2)CC1`, the IC50 worked out at 740 nM.

For orientation: IC50 means the concentration needed to halve the response being measured. Read a high IC50 as weaker potency.

(Values after PubChem BioAssay AID2305 (GlaxoSmithKline (GSK), 2010).)
